Measurements as given in paper PMC4072787 (PLoS Pathogens, 2014).
Entries after “also recorded” stand apart in the source; their conditions may differ. Like-named read-outs stand apart in the source and are kept apart here.

Legend:
VEEV TC-83 [1] = assay: microbe, parasite or virus in culture; format: cell-based; conditions: Venezuelan equine encephalitis virus, Vero 76
VEEV TC-83 [2] = assay: microbe, parasite or virus in culture; format: cell-based; conditions: Venezuelan equine encephalitis virus, Vero 76, read-out: IC50 against TC-83 1º
VEEV TC-83 [3] = assay: microbe, parasite or virus in culture; format: cell-based; conditions: Venezuelan equine encephalitis virus
VEEV V3526 = assay: microbe, parasite or virus in culture; format: cell-based; conditions: Venezuelan equine encephalitis virus
VEEV TrD [4] = assay: microbe, parasite or virus in culture; format: cell-based; conditions: Venezuelan equine encephalitis virus
EEEV strain FL91 = assay: microbe, parasite or virus in culture; format: cell-based, Eastern equine encephalitis virus
WEEV (VR-70) = assay: microbe, parasite or virus in culture; format: cell-based; conditions: Western equine encephalitis virus, Vero, 72 h, read-out: Antiviral Activity (IC50), WEEV
CHIKV = assay: microbe, parasite or virus in culture; format: cell-based, Chikungunya virus
Ebola virus (Zaire)-GFP = assay: microbe, parasite or virus in culture; format: cell-based
RSV (strain Long) = assay: microbe, parasite or virus in culture; format: cell-based, human respiratory syncytial virus
VACV-LREV = assay: microbe, parasite or virus in culture; format: cell-based, vaccinia virus (western reserve)
VSV-EGFP = assay: microbe, parasite or virus in culture; format: cell-based, vesicular stomatitis virus
VEEV TC-83 [5] = format: cell-based, Venezuelan equine encephalitis virus
VEEV TrD [6] = format: cell-based, Venezuelan equine encephalitis virus
VEEV TC-83 [7] = format: cell-based, Venezuelan equine encephalitis virus; remark: listed apart in the source
VEEV TC-83 RNA = format: cell-based, Venezuelan equine encephalitis virus
VEEV TC-83 proteins = format: cell-based, Venezuelan equine encephalitis virus
VEEV TC-83 [8] = format: cell-based, Venezuelan equine encephalitis virus; remark: listed apart in the source
[9] = mouse, in vivo
[10] = 16 hr.
[11] = microsomes
in vivo = conditions: mouse, ip
in vitro [12] = conditions: African green monkey
in vitro [13] = conditions: mouse, plasma
in vitro [14] = conditions: microsomes
in vitro [15] = conditions: mouse; for fraction unbound: plasma
in vitro [16] = conditions: dog, MDCK-MDR1
MDR1 = assay: in vitro; conditions: dog, MDCK-MDR1
in vitro [17] = conditions: PAMPA
VEEV TC-83 [18] = conditions: mouse, in vivo; cited from earlier work
[19] = Vero 76, read-out: IC50 against TC-83 2º

CCN1CCN(Cc2nc3ccc([N+](=O)[O-])cc3c(=O)n2-c2ccccc2F)CC1 [CID15997213]
inhibition at 20 µM (VEEV TC-83 [1]): 73% | IC50 (VEEV TC-83 [2]): 1.91 µM | IC50 (VEEV TC-83 [3]; [19]): 1.3 µM | IC50 (VEEV TC-83 [3]; read-out: IC50, VEEV TC-83): 0.84 µM | IC50 (VEEV V3526; read-out: Antiviral Activity (IC50), VEEV V3526): 0.67 µM | IC50 (VEEV V3526; read-out: IC50, V3526): 0.32 µM | IC50 (VEEV V3526; read-out: IC50 against V3526): 1.01 µM | IC50 (VEEV TrD [4]; N2a, read-out: Antiviral Activity (IC50), VEEV TrD): 0.48 µM | IC50 (VEEV TrD [4]; Vero 76, read-out: Antiviral Activity (IC50), VEEV TrD): 0.38 µM | IC50 (VEEV TrD [4]; read-out: IC50, VEEV TrD): 0.36 to 0.48 µM | Antiviral Activity (IC50), EEEV (EEEV strain FL91): no activity | IC50 (EEEV strain FL91; Eastern equine encephalitis virus, Vero, 40 h, read-out: Antiviral Activity (IC50), EEEV): > 20 µM | IC50 (WEEV (VR-70)): 10 µM | Antiviral Activity (IC50), CHIKV (CHIKV): not inhibited | IC50 (CHIKV; Chikungunya virus, 72 h, read-out: Antiviral Activity (IC50), CHIKV): > 50 µM | Antiviral Activity (IC50), Ebola virus (Zaire)-GFP (Ebola virus (Zaire)-GFP): No antiviral activity | IC50 (Ebola virus (Zaire)-GFP; Zaire ebolavirus, HeLa, 24 h, read-out: Antiviral Activity (IC50), Ebola virus (Zaire)-GFP): > 10 µM | Antiviral Activity (IC50), RSV (RSV (strain Long)): No antiviral activity | IC50 (RSV (strain Long); human respiratory syncytial virus, HEp-2, 120 h, read-out: Antiviral Activity (IC50), RSV): > 50 µM | Antiviral Activity (IC50), VACV-LREV (VACV-LREV): No antiviral activity | IC50 (VACV-LREV; Vaccinia virus Western Reserve, A549, 18 h, read-out: Antiviral Activity (IC50), VACV-LREV): > 20 µM | Antiviral Activity (IC50), VSV-EGFP (VSV-EGFP): No antiviral activity | IC50 (VSV-EGFP; Vesicular stomatitis virus, A549, 18 h, read-out: Antiviral Activity (IC50), VSV-EGFP): > 20 µM | Progeny virus in titer reduction assay (VEEV TC-83 [5]): No progeny virus was detected | Progeny virus in titer reduction assay (VEEV TrD [6]): No progeny virus was detected | Plaque formation (VEEV TC-83 [7]): no visible plaques | Reduction in viral RNA levels as compared to the control (VEEV TC-83 RNA): > 8,000 fold | Viral protein level (western blot) (VEEV TC-83 proteins): dramatic decrease in viral protein level; also recorded: not able to detect viral proteins | Virus production still occurring, of the maximum (VEEV TC-83 [8]): 90% | Acute toxicity, clinical signs [9]: no acute toxicity | Toxicity (body weight loss, adverse effects) [9]: No apparent toxicity | Aqueous solubility [10]: >100 µM | microsomal stability [11]: good | MTD (in vivo): ≥ 800 mg/kg | CC50 (in vitro [12]): > 25 µM | solubility (physchem): > 100 µM | half-life (in vitro [13]): > 4 h | microsomal CLint (in vitro [14]): 31.4 µL/min/mg | recovery (in vitro [15]): 89% | fraction unbound (in vitro [15]; Mean plasma fraction bound): 0.324 | fraction unbound (in vitro [15]; Mean plasma fraction unbound): 0.324 | fraction unbound (in vitro [15]; protein binding): 0.68 | Papp A→B (in vitro [16]): 7.2 ×10⁻⁶ cm/s | Papp B→A (in vitro [16]): 38.5 ×10⁻⁶ cm/s | efflux ratio (MDR1): 5.3 | Papp (in vitro [17]): 42 ×10⁻⁶ cm/s

O=C(Cc1cccs1)Nc1nc2c(s1)CCCC2 [compound 847035]
inhibition at 20 µM (VEEV TC-83 [1]): 27.8% | IC50 (VEEV TC-83 [2]): 6.38 µM | IC50 (VEEV TC-83 [3]; [19]): 4.71 µM | IC50 (VEEV V3526; read-out: IC50 against V3526): 7.09 µM | CC50 (in vitro [12]): > 25 µM

Clc1ccc2nnnc(-c3ccccc3)c2c1 [compound 902491]
inhibition at 20 µM (VEEV TC-83 [1]): 42.1% | IC50 (VEEV TC-83 [2]): 9.71 µM | IC50 (VEEV TC-83 [3]; [19]): 3.45 µM | IC50 (VEEV V3526; read-out: IC50 against V3526): 6.12 µM | CC50 (in vitro [12]): > 25 µM

O=c1nc(Nc2ccc(OCc3ccccc3)cc2)sc2ncccc12 [compound 1258664]
inhibition at 20 µM (VEEV TC-83 [1]): 63.2% | IC50 (VEEV TC-83 [2]): 2.86 µM | IC50 (VEEV TC-83 [3]; [19]): 2.38 µM | IC50 (VEEV V3526; read-out: IC50 against V3526): 3.67 µM | CC50 (in vitro [12]): > 25 µM

CCOC(=O)c1ccc(Nc2nc(=O)c3cccnc3s2)cc1 [compound 1259240]
inhibition at 20 µM (VEEV TC-83 [1]): 49% | IC50 (VEEV TC-83 [2]): 6.32 µM | IC50 (VEEV TC-83 [3]; [19]): 7.07 µM | IC50 (VEEV V3526; read-out: IC50 against V3526): 10.8 µM | CC50 (in vitro [12]): > 25 µM

O=C(Oc1ccc2ccccc2c1Br)N1CCCCCC1 [compound 2928803]
inhibition at 20 µM (VEEV TC-83 [1]): 42.8% | IC50 (VEEV TC-83 [2]): 4.26 µM | IC50 (VEEV TC-83 [3]; [19]): > 50 µM | IC50 (VEEV V3526; read-out: IC50 against V3526): > 50 µM | CC50 (in vitro [12]): > 25 µM

(−)-carbodine
Survival (VEEV TC-83 [18]): 50%
